According to patent US7125671B2, “Nucleic acid amplification with terminal-phosphate labeled nucleotides” (GE Healthcare Bio-Sciences Corp., priority 2003, dated 2006):

Legend:
[1] = biological target: Taq DNA polymerase (Thermus aquaticus, UniProt P19821); assay: PCR amplification of pUCp53 target with terminal-phosphate labeled nucleotide, gel and fluorescence detection; assay type: biochemical; settings: lane 2 of FIG. 1, 0.2 mM MnCl2
Description: Polymerase chain reaction (PCR) mixtures (20 μl) contained 20 mM Tris-HCL (pH 8.75), 10 mM KCL, 10 mM (NH4)2SO4, 2 mM MgSO4, 1 mg/ml bovine serum albumin and 0.1% (v/v) Triton X-100. The final nucleotide concentrations were 20 μM each, and 2.5 units of the DNA polymerase were used for each reaction. The initial template DNA (1–5 ng) was either pUC18 or pUCp53 (Amersham Biosciences). The initial amount of primer was 2 μmol each, and 2.5 units of the indicated DNA polymerase was used. Reactions were carried out for 15 thermal cycles of 90° C., 30 sec.; 55° C., 60 sec.; and 72° C., 300 sec. Most PCR reactions also included MnCl2 at a final concentration of 0.08–0.2 mM. Reaction products were loaded onto 1.6% agarose gels. The gels were stained with SYBR Gold (Molecular Probes) according to the manufacturers' instructions and scanned at 532 nm using a Typhoon fluorescence scanner (Amersham Biosciences). Gel size markers were a 100 bp ladder (Amersham Biosciences). […]
(§1) Then the fluorescence was determined using a FarCYte fluorescence plate reader (Amersham Biosciences) using 650 nm excitation and 670 nm emission. […] The reaction product of Tba exo-DNA polymerase gave a reading of 31,000 fluorescence units.

[2] = system: Tba exo-DNA polymerase; assay: as above; assay type: biochemical, Thermococcus barosii
Description: (§2) Polymerase chain reaction (PCR) mixtures (20 μl) contained 20 mM Tris-HCL (pH 8.75), 10 mM KCL, 10 mM (NH4)2SO4, 2 mM MgSO4, 1 mg/ml bovine serum albumin and 0.1% (v/v) Triton X-100. The final nucleotide concentrations were 20 μM each, and 2.5 units of the DNA polymerase were used for each reaction. The initial template DNA (1–5 ng) was either pUC18 or pUCp53 (Amersham Biosciences). The initial amount of primer was 2 μmol each, and 2.5 units of the indicated DNA polymerase was used. Reactions were carried out for 15 thermal cycles of 90° C., 30 sec.; 55° C., 60 sec.; and 72° C., 300 sec. Most PCR reactions also included MnCl2 at a final concentration of 0.08–0.2 mM. Reaction products were loaded onto 1.6% agarose gels. The gels were stained with SYBR Gold (Molecular Probes) according to the manufacturers' instructions and scanned at 532 nm using a Typhoon fluorescence scanner (Amersham Biosciences). Gel size markers were a 100 bp ladder (Amersham Biosciences).
(§3) The DNA polymerases used for these experiments included Taq DNA polymerase, Thermo Sequenase DNA polymerase (Amersham Biosciences), Tba exo-DNA polymerase (from Thermococcus barosii, U.S. Pat. No. 5,602,011 with D141A and E143A amino acid substitutions U.S. Pat. No. 5,882,904), Pfu DNA polymerase (Strategene), KOD XL DNA polymerase (Novagen) and Deep Vent DNA polymerase (New England BioLabs).
For this experiment, either Taq DNA polymerase (lanes 1–3, 12), Thermo Sequenase (Amersham Biosciences) DNA polymerase (lanes 7–9, 11) or Tba exo-DNA polymerase (lanes 4–6, 10) were used. The MnCl2 concentration was 0 mM for the reactions resolved in lanes 1, 4, 7 and 10–12; 0.2 mM in lanes 2, 5, and 8; 0.4 mM in lanes 3, 6 and 9. For all samples, the template DNA was pUCp53 and the primers were P53SNP22C-51F and P53SNP22G131R. […]
as §1

[3] = system: pUC18 DNA; assay: PCR with additional nucleotides, template and primers (FIG. 3); assay type: biochemical; settings: labeled nucleotide replaces the normal dNTP; 0.2 mM MnCl2; −21 Forward and −28 Reverse primers
Description: as §2
(§4) For both figures, the amplification reaction loaded in lane 1 was performed with normal dNTPs and without MnCl2. For the lanes marked 2, the dTTP was replaced by dT4P-DDAO and the reactions contained 0.2 mM MnCl2. For the lanes marked 3, the dGTP was replaced by dG4P-DDAO, and for the lanes marked 4, the dGTP was replaced by dG4P-MeCoumarin again with 0.2 mM MnCl2.

[4] = system: KOD XL DNA polymerase; assay: PCR amplification of pUCp53 target with terminal-phosphate labeled nucleotide; assay type: biochemical; settings: same conditions as FIG. 1, DDAO-dT4P replaced dTTP
Description: as §2
as §3, with “BioLabs). […]” for “BioLabs).”

[5] = biological target: T1, Pfu DNA polymerase (Pyrococcus furiosus, UniProt P61875); assay: as above; assay type: biochemical; settings: same conditions as FIG. 1, DDAO-dT4P replaced dTTP
T1 construct: purchased Strategene (so in the source); Stratagene)
T1 sequence (P61875 1-775): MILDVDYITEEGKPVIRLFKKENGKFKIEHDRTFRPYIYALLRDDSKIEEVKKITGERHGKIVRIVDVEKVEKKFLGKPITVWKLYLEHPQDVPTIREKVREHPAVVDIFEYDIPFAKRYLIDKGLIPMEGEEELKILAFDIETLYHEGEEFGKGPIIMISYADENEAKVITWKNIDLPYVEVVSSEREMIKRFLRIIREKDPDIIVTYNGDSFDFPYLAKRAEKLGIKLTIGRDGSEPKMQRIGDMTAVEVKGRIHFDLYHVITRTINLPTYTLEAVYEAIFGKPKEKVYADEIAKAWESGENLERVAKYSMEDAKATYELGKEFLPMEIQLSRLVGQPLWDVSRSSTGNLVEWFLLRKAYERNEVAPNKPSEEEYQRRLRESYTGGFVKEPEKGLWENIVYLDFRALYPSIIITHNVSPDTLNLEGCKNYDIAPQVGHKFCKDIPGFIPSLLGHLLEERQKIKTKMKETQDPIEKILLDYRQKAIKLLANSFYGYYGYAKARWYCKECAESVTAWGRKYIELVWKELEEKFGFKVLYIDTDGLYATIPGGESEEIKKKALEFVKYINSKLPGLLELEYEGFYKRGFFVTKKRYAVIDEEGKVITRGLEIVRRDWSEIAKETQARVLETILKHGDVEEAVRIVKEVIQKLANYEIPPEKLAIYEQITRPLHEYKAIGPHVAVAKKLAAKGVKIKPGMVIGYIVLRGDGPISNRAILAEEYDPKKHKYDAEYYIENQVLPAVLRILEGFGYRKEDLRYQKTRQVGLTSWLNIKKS
Description: as §2
as §3, with “BioLabs). […]” for “BioLabs).”

[6] = system: pUCp53 DNA; assay: PCR with additional nucleotides (FIG. 2); assay type: biochemical; settings: labeled nucleotide replaces the normal dNTP; 0.2 mM MnCl2; primers P53SNP22C-51F and P53SNP22G131R
Description: as §2, §4

[7] = biological target: T2, Phi29 DNA polymerase (Bacillus phage phi29, UniProt P03680); assay: Rolling circle amplification of salmon sperm chromosomal DNA with terminal-phosphate labeled/blocked nucleoside polyphosphates; assay type: biochemical; settings: 50 μm dT4P-DDAO with dA4P-Me, dG4P-Me, dC4P-Me, BAP, 30° C.
T2 sequence (P03680 1-575): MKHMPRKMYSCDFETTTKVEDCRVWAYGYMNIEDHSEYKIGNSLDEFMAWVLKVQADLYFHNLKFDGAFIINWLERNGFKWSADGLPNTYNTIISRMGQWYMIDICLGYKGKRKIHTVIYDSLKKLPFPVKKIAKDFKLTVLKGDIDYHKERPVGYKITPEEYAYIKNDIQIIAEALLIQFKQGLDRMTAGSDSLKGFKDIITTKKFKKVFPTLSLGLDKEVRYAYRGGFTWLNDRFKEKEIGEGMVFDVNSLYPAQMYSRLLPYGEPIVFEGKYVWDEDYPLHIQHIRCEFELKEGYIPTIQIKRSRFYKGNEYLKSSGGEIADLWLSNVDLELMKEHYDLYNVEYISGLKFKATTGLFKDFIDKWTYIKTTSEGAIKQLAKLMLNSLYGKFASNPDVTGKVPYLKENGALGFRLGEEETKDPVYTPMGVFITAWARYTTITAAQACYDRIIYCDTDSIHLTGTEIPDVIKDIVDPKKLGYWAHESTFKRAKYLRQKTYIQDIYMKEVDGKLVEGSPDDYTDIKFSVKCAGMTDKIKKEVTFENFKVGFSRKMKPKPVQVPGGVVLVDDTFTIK
Description: Varying amounts of denatured salmon sperm chromosomal DNA was taken in 25 mM Tris: borate buffer, pH 8.0, containing 5 mM ammonium sulfate, 75 mM NaCl, 5 mM MgCl2, 1 mM MnSO4, 0.01% Tween-20, 400 ng Phi29 DNA polymerase, 40 μm nuclease resistant random hexamers, 0.03 units of BAP and 50 μm each of dA4P-Me, dG4P-Me, dC4P-Me and dT4P-DDAO. Reactions were incubated at 30° C. in a Tecan fluorescent plate reader and were read every five minutes at excitation and emission wavelengths optimized for DDAO. Raw fluorescence counts are plotted as a function of time.

[8] = Non-enzymatic hydrolysis of dT4P-DDAO in the presence of MnCl2, effect of other salts (FIG. 5); settings: 10 or 25 mM salt; 0.5 mM MnCl2; 25 mM Hepes pH 8.1; 95° C. for 60 minutes
Description: Twenty μl of 25 mM Hepes, pH 8.1, containing 0.5 mM MnCl2, 1 μm dT4P-DDAO and 10 or 25 mM inorganic or organic salt (see FIG. 5) was heated at 95° C. for 60 minutes. 4 μl of each sample was treated with BAP as described above and read on Tecan ultra plate reader. An unheated sample with MnCl2 (water lane) and a heated sample without Hepes and MnCl2 were used as controls. Fluorescence counts were converted into % degradation as described above.

[9] = system: T. ba polymerase; assay: PCR amplification with terminal-phosphate labeled nucleoside polyphosphates in the presence of stabilizing additives (FIG. 6); assay type: biochemical, Thermococcus barosii; settings: 10–25 mM salt; dA4P-Me, dT4P-Me, dC4P-Me, dG4P-FlEt; 0.25 mM MnCl2; M13 DNA; 35 cycles
Description: Polymerase chain reaction (PCR) mixtures (20 μl) contained 25 mM Hepes (pH 8.1), 10 mM KCl, 2 mM MgSO4, 0.25 mM MnCl2, 1 mg/ml bovine serum albumin, 0.01% (v/v) Tween-20 and 10–25 mM salt as shown in FIG. 6. Each sample also contained 20 μm each of dA4P-Me, dT4P-Me, dC4P-Me, 200 μm dG4P-FlEt, 0.006 units/μl BAP, 2 units of T. ba polymerase, 0.1 μm −40 M13 forward primer, 0.1 μm −28 M13 reverse primer and 0.2 ng M13 DNA. In addition to the terminal-phosphate labeled nucleotide, terminal methyl-blocked dNTP's were used instead of normal dNTP's to prevent degradation by BAP (phosphatase). Latter is required for signal generation from dye-polyphosphate after the nucleotide is incorporated into DNA by polymerase. Reactions were carried out for 35 thermal cycles of 90° C., 30 sec.; 55° C., 30 sec.; and 65° C., 300 sec. Reaction products were loaded onto 1.6% agarose gels. The gels were stained with SYBR Gold (Molecular Probes) according to the manufacturers' instructions and scanned at 532 nm using a Typhoon fluorescence scanner (Amersham Biosciences). Gel size markers were a 100 bp ladder (Amersham Biosciences).

[10] = Non-enzymatic hydrolysis of terminal-phosphate labeled nucleoside polyphosphate on thermal cycling, effect of glycerol; assay type: physicochemical; settings: 5% glycerol; high temperatures
Description: Seventy μl samples containing 50 mM Hepes, pH 8.0, 5 mM MgCl2, 0.5 mM MnCl2, 0.01% Tween-20, 1 μm ddT4P-EtFl, 100 nM primer/template, 0.0036 units/μl SAP with or without 5% glycerol were cycled as follows: 95° C., 30 sec and 50° C., 3 min, repeat 10 times. Amount of free dye formed was checked in a fluorimeter.

Taq DNA polymerase, sequence (P19821 whole entry): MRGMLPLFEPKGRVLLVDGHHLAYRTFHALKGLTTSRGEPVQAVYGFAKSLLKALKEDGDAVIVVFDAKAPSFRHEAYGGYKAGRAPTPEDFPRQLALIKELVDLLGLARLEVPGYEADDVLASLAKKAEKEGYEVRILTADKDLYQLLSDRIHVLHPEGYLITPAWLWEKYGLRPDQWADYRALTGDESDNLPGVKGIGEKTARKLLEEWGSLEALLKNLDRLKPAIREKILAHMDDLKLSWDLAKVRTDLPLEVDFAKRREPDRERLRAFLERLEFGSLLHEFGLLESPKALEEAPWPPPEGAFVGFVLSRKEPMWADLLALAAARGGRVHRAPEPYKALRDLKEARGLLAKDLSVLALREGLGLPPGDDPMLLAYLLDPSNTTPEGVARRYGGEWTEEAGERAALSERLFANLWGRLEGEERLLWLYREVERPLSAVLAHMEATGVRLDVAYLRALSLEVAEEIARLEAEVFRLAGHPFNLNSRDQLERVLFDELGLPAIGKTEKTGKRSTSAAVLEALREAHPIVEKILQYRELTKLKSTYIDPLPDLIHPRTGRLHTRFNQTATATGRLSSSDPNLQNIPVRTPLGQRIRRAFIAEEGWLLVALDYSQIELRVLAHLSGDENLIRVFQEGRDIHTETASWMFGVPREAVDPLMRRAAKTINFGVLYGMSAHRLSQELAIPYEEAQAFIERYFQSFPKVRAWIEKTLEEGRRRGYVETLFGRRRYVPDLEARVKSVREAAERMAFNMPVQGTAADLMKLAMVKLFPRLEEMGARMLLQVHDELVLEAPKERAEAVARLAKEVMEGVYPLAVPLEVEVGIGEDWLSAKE

Cc1cn([C@H]2CC(O)[C@@H](COP(=O)(O)OP(=O)(O)OP(=O)(O)OP(=O)(O)Oc3ccc4c(c3)C(C)(C)C3=C(Cl)C(=O)C(Cl)=CC3=N4)O2)c(=O)[nH]c1=O (stereo partly shown) [dT4P-DDAO, δ-9H(1,3-dichloro-9,9-dimethylacridin-2-one-7-yl)-deoxythymidine-5′-tetraphosphate]
PCR product ([1]; DDAO-dT4P replaced dTTP): little or no detectable PCR product
fluorescence reading of PCR reaction product after shrimp alkaline phosphatase ([1]; 650 nm excitation, 670 nm emission): 5500 fluorescence units
increase of PCR yield in the presence of MnCl2 ([2]; 0.2–0.4 mM MnCl2 versus 0 mM, DDAO-dT4P replaced dTTP): at least 5 fold
PCR product on agarose gel ([2]; DDAO-dT4P replaced dTTP, pUCp53 template, 15 thermal cycles, FIG. 1): significant amounts of PCR product were made
fluorescence reading of PCR reaction product after shrimp alkaline phosphatase ([2]; lane 5 of FIG. 1, 0.2 mM MnCl2, 650 nm excitation, 670 nm emission): 31,000 fluorescence units
PCR amplification product on gel [3]: successfully produced product of the expected size
PCR product [4]: PCR product is made
PCR product [5]: PCR product is made
PCR amplification product on gel [6]: successfully produced product of the expected size
rate of product formation (slope 20–40 minutes) versus amount of input DNA ([7]; FIG. 10): linear correlation
fluorescence signal ([7]; absence of input DNA, FIG. 9): no signal is produced

Cc1cc(=O)oc2cc(OP(=O)(O)OP(=O)(O)OP(=O)(O)OP(=O)(O)OC[C@H]3O[C@@H](n4cnc5c(=O)[nH]c(N)nc54)C[C@@H]3O)ccc12 [dG4P-MeCoumarin, 2′-Deoxyguanosine-5′-(δ-7-(4-methylumbelliferone)) tetraphosphate]
PCR amplification product on gel [3]: successfully produced product of the expected size
PCR amplification product on gel [6]: successfully produced product of the expected size

O=C(O)CP(=O)(O)O [phosphonoacetate]
stabilization of dT4P-DDAO (% degradation) [8]: stabilize the nucleotide
PCR product formation in the presence of the additive [9]: No product formed

[Na+].[Na+].[O]=[W](=[O])([O-])[O-] [sodium tungstate]
PCR product formation in the presence of the additive [9]: PCR product was separated

CCCS(=O)(=O)O [propane sulfonate]
stabilization of dT4P-DDAO (% degradation) [8]: minimal

sodium vanadate
PCR product formation in the presence of the additive [9]: No product formed

[Na+].[Na+].[O]=[Mo](=[O])([O-])[O-] [sodium molybdate]
PCR product formation in the presence of the additive [9]: PCR product was separated

OCC(O)CO [glycerol]
effect of additive on degradation of ddT4P-EtFl caused by manganese [10]: reduces the amount of degradation caused by manganese

CC1(C)C2=C(Cl)C(=O)C(Cl)=CC2=Nc2ccc(OP(=O)(O)OP(=O)(O)OP(=O)(O)OP(=O)(O)OC[C@H]3OC(n4cnc5c(=O)[nH]c(N)nc54)CC3O)cc21 (stereo partly shown) [dG4P-DDAO, δ-9H(1,3-dichloro-9,9-dimethylacridin-2-one-7-yl)-deoxyguanosine-5′-tetraphosphate]
PCR amplification product on gel [3]: successfully produced product of the expected size
PCR amplification product on gel [6]: successfully produced product of the expected size
